“And” between values parts separate entries of the source, which are not always exact repeats. Equal entries are not always repeated. “Also recorded” adds a separate entry of the source. Where two headings read alike, the source gives them in different places. Each block holds one compound with its values, some of them ahead of it.
How the values were obtained:
[1] = system: indigenous denitrifying bacteria naturally present in the groundwater; assay: Serum bottle denitrification of Tuba City groundwater amended with carbon and phosphorus sources; type: cell-based; conditions: for concentration (as high as) at which activity of denitrifiers was not inhibited: initial nitrate about 21 mM
Procedure: In situ biological denitrification was studied as a groundwater remediation process with nitrogen as the final product at an UMTRA site in Tuba City, Ariz. Nitrate contaminated groundwater and soil from the contaminated field site were used, and in all experiments the initial nitrate concentration was about 1300 mg/L and the pH was 7.5-8. Denitrification was studied in a 2.5 L fermentor and in 120 mL serum bottles using a water to soil ratio of 100 mL/8 g and indigenous denitrifying bacteria naturally present in the groundwater. Oxygen was removed initially by purging with argon for 15 minutes. […] Nitrate, nitrite, carbon source, and pH changes were monitored during denitrification. Eh was indicated using a resazurin dye. […] For each carbon source, the stoichiometric equation is present, and a theoretical yield coefficient was determined from each stoichiometric equation.
The water samples were kept in 1000 mL plastic bottles and reserved in a refrigerator.
Chemicals used for phosphorus amendment included orthophosphate KH2PO4, trimetaphosphate Na3P3O9 (Sigma Co.) and polyphosphate (NaPO3)n (Aldrich Co.). All chemicals were A.C.S. reagent grade. Crushed sands were prepared by pulverizing the core samples (about 47 to 100 feet depth) from the Tuba City site using a pestle and mortar. This Navajo sandstone is a fine to fine grained unit with median grain size diameter (d50) about 0.11 mm. The sandstone was kept without contamination by organic chemicals.
(§1) Stock solution mixtures with neutral pH and total volume less than 15 mL for denitrification amendment, including carbon source and phosphorus sources, 0.05 mL of a 0.2% resazurin solution (redox potential indicator), and 8 g crushed sand for part experiments, were added into a 160 mL serum bottle, which was then autoclaved at 121° C. (250° F.) for 20 min. Groundwater sample was added under aseptic environment after the bottle cooled down, and the serum bottle was sealed with a butyl rubber stopper and crimped with an aluminum seal. Total volume of the liquid was about 100 to 120 mL. The solution was then purged with argon gas through a 22 gauge long needle for 15 min to ensure that an anaerobic environment was maintained, and another needle was used for gas exhaustion at the same time. The exhaustion needle was taken out before the spinal needle was done, and the serum bottle was pressurized under 7-10 psig. To keep the gas phase sterile, a gas filter with 0.2 μm pore size was used. Serum bottles were kept either at room temperature about 23±1° C. and shaken 2 to 3 times every day or kept at 16° C. in a Lindberg/Blue M constant temperature refrigerated shaker waterbath model RSWB3222A (A General Signal Company, NC). No denitrifying bacteria were inoculated to water samples, and pH was not controlled for all of the experiments. Denitrification process via the activity of the indigenous denitrifiers present in the groundwater was monitored. Disposable syringes were used for sampling.
The IC unit, Dionex DX 500 chromatography system (Dionex Co., CA), consists of a GP 40-1 gradient pump, an ED 40-1 electrochemical detector, and a LC 10-2 chromatography organizer with an lonpac AS 11 analytical column (4 mm) and an ASRS-1 (4 mm) anion self-regenerating suppresser as its main components. This lonpac AS 11 4-mm analytical column with functional group of alkanol quaternary ammonium is designed to resolve a number of inorganic anions and organic acid anions from a single sample injection in one gradient run using hydroxide eluent systems such as NaOH used in our experiment.

indigenous bacteria = assay: Batch denitrification of Mountainview groundwater; type: cell-based
[2] = Phosphate precipitation in amended groundwater (serum bottles); type: physicochemical; conditions: for calcium phosphate precipitation as compared to orthophosphate: Tuba City groundwater
Procedure: as §1, with “The solution was then purged with argon gas through a 22 gauge long needle for 15 min to ensure that an anaerobic environment was maintained, and another needle was used for gas exhaustion at the same time.” left out
Triple serum bottle experiments were run in parallel at room temperature about 23±1° C.

[3] = complete = <1 mg/L for N, core sand, KH2PO4, 23±1° C.
[4] = groundwater with core sand, KH2PO4 100 mg/L, 23±1° C.
[5] = serum bottles purged with argon

Compound: CC(=O)[O-].[K+] [Acetate, potassium acetate]
C/N molar ratio for nearly complete denitrification (Table 5) [1]: 1.425
C/N molar ratio, minimum for nearly complete denitrification [1]: 1.425
Denitrification efficiency [1]: 0% and 7-10%
minimum C/N molar ratio for complete denitrification [1]: 1.425
nitrate reduced after two months [1]: 5%
denitrification via indigenous bacteria (indigenous bacteria; potassium acetate without TMP): did not work

Compound: CCO [Ethanol, ethanol]
minimum C/N molar ratio for complete denitrification [1, 3]: 1.083
C/N molar ratio for nearly complete denitrification (Table 5) [1, 4]: 1.083
C/N molar ratio, minimum for nearly complete denitrification [1, 4]: 1.083
concentration (as high as) at which activity of denitrifiers was not inhibited [1]: 25 mM
denitrification time ([1]; orthophosphate, whole group of experiments finished, FIG. 5(f)): about 3.5 weeks
time at which nitrate reduction completed or stopped ([1]; polyphosphate 100 mg NaPO3/L, core sand, argon purge, 23±1° C., ethanol insufficient for complete denitrification): about 30 days

Compound: CC(O)C(=O)[O-].[Na+] (stereo not shown) [Lactate, sodium lactate]
minimum C/N molar ratio for complete denitrification [1, 3]: 2
C/N molar ratio for nearly complete denitrification (Table 5) [1, 4]: 2.000
C/N molar ratio, minimum for nearly complete denitrification [1, 4]: 2.000

Compound: CO [Methanol, methanol]
minimum C/N molar ratio for complete denitrification [1, 3]: 1
C/N molar ratio for nearly complete denitrification (Table 5) [1, 4]: 1.000
C/N molar ratio, minimum for nearly complete denitrification [1, 4]: 1.000
concentration (as high as) at which activity of denitrifiers was not inhibited [1]: 45 mM

calcium phosphate precipitation as compared to orthophosphate [2]: reduced calcium phosphate precipitation
Compound: O=P1([O-])OP(=O)([O-])OP(=O)([O-])O1.[Na+].[Na+].[Na+] [TMP, trimetaphosphate]
phosphate precipitate observed in groundwater [2, 5]: No phosphate precipitate was found in three weeks; also recorded: No phosphate precipitate was found while purging with argon, even in two weeks
time to complete denitrification ([1]; TMP 100 mg NaPO3/L and acetate, with sand, 16° C.): 28 days
denitrification time longer than with orthophosphate ([1]; TMP and acetate, with sand, 16° C.): 11 days
denitrification via indigenous bacteria (indigenous bacteria; groundwater amended with potassium acetate and 20 mg TMP/L): worked successfully

Compound: O=P(O)(O)O [orthophosphate, reference compound]
phosphate precipitate observed in groundwater [2, 5]: Precipitate of orthophosphate (0.7-0.8 mM) formed

calcium phosphate precipitation as compared to orthophosphate [2]: reduced calcium phosphate precipitation
Compound: polyphosphate
phosphate precipitate observed in groundwater ([2]; acetate and polyphosphate, no core sand, without purging with argon): Phosphate precipitate was not found; also recorded: White precipitates were not found until a week later
phosphate precipitate observed in groundwater [2, 5]: precipitate was found right after purging with argon; also recorded: white precipitates appeared while purging with argon
